Tests used:
[1] = Stability of the working solution (4°C for 1 month); format: physicochemical
Method: (§1) The stability of analytes in plasma was evaluated by analyzing 4 QC samples (n = 6). The stability was included auto-sampler stability (keeping the sample in auto-sampler for 24 h), three times of freeze-thaw cycles stability (freezing cycle at −80°C, thawing cycle at room temperature), room temperature stability (storing samples at room temperature for 24 h), long-term stability (storing samples at −80°C for 1 month). […] Accompanying curve was established when testing the sample, calculate and compare the ratio of the actual measured concentration to the theoretical concentration, expressed in accuracy and RSD.

[2] = Stability of analytes in rat plasma (auto-sampler, freeze-thaw, room temperature, long-term); details: for Autosampler for 24 h Accuracy (%): autosampler 24 h; for Room temperature for 24 h Accuracy (%): room temperature 24 h; for Freeze thaw cycles Accuracy (%): three freeze-thaw cycles
Method: as §1

| Room temperature for 24 h Accuracy (%) ([2]; 12.5 ng/mL) | Freeze thaw cycles Accuracy (%) ([2]; 12.5 ng/mL) | −80°C for 1month Accuracy (%) ([2]; 12.5 ng/mL, −80°C 1 month) | Working solution Accuracy (%) ([1]; 12.5 ng/mL) | Working solution Accuracy (%) ([1]; 50 ng/mL) | Autosampler for 24 h Accuracy (%) ([2]; 50 ng/mL) | −80°C for 1month Accuracy (%) ([2]; 50 ng/mL, −80°C 1 month) | Room temperature for 24 h Accuracy (%) ([2]; 50 ng/mL) | Structure (SMILES) | Working solution Accuracy (%) ([1]; 100 ng/mL) | Working solution Accuracy (%) ([1]; 500 ng/mL) | Autosampler for 24 h Accuracy (%) ([2]; 12.5 ng/mL) | Autosampler for 24 h Accuracy (%) ([2]; 100 ng/mL) | Room temperature for 24 h Accuracy (%) ([2]; 100 ng/mL) | Freeze thaw cycles Accuracy (%) ([2]; 100 ng/mL) | −80°C for 1month Accuracy (%) ([2]; 100 ng/mL, −80°C 1 month) | Autosampler for 24 h Accuracy (%) ([2]; 500 ng/mL) | Room temperature for 24 h Accuracy (%) ([2]; 500 ng/mL) | Freeze thaw cycles Accuracy (%) ([2]; 500 ng/mL) | −80°C for 1month Accuracy (%) ([2]; 500 ng/mL, −80°C 1 month) | other results |
| --- | --- | --- | --- | --- | --- | --- | --- | --- | --- | --- | --- | --- | --- | --- | --- | --- | --- | --- | --- | --- |
| 94.4% | 97.6% | 85.7% | 93.5% | 102.0% | 98.3% | 98.2% |  | O=C1C[C@@H](c2ccc(O)cc2)Oc2cc(O)cc(O)c21 [naringenin] | 85.6% | 98.2% |  | 99.5% | 92.9% |  | 97.4% | 107.0% | 95.2% |  | 94.2% |  |
| 106.0% | 97.6% | 97.6% | 106.0% |  | 97.6% | 96.4% | 106.0% | C[C@@]12C[C@@]3(O)O[C@@H](O1)[C@]1(COC(=O)c4ccccc4)[C@H]3C[C@@]12O[C@@H]1O[C@H](CO)[C@@H](O)[C@H](O)[C@H]1O [paeoniflorin] |  | 93.2% | 86.8% | 111.0% | 86.8% | 93.4% | 95.2% | 92.0% | 92.2% | 93.1% | 95.3% | Freeze thaw cycles Accuracy (%) ([2]; 50 ng/mL): 94.1% |
| 90.6% | 84.5% | 90.6% | 87.6% | 95.0% | 93.1% | 107.0% | 91.2% | O=C(/C=C/c1ccc(O)c(O)c1)O[C@H]1[C@H](O)C[C@](O)(C(=O)O)C[C@H]1O [cryptochlorogenic acid] | 94.6% | 96.8% | 94.6% | 92.7% |  | 88.9% | 110.0% | 109.0% | 100.0% | 98.7% | 104.0% | Freeze thaw cycles Accuracy (%) ([2]; 50 ng/mL): 86.6% |
|  |  |  |  |  |  |  |  | COc1c2ccoc2c(OC)c2oc(=O)ccc12 [isopimpinellin (IS)] |  |  |  |  |  |  |  |  |  |  |  | Working solution Accuracy (%) ([1]; concentration 100 ng/mL): 93.5%; Autosampler for 24 h Accuracy (%) ([2]; concentration 100 ng/mL): 98.6%; Room temperature for 24 h Accuracy (%) ([2]; concentration 100 ng/mL): 96.5%; Freeze thaw cycles Accuracy (%) ([2]; concentration 100 ng/mL): 88.2%; −80°C for 1month Accuracy (%) ([2]; −80°C for 1 month, concentration 100 ng/mL): 109.0% |

| Structure (SMILES) | Room temperature for 24 h Accuracy (%) ([2]; 12.5 ng/mL) | Freeze thaw cycles Accuracy (%) ([2]; 12.5 ng/mL) | −80°C for 1month Accuracy (%) ([2]; 12.5 ng/mL, −80°C 1 month) | Working solution Accuracy (%) ([1]; 12.5 ng/mL) | Working solution Accuracy (%) ([1]; 50 ng/mL) | Autosampler for 24 h Accuracy (%) ([2]; 50 ng/mL) | −80°C for 1month Accuracy (%) ([2]; 50 ng/mL, −80°C 1 month) | Room temperature for 24 h Accuracy (%) ([2]; 50 ng/mL) | Working solution Accuracy (%) ([1]; 100 ng/mL) | Working solution Accuracy (%) ([1]; 500 ng/mL) | Autosampler for 24 h Accuracy (%) ([2]; 12.5 ng/mL) | Autosampler for 24 h Accuracy (%) ([2]; 100 ng/mL) | Room temperature for 24 h Accuracy (%) ([2]; 100 ng/mL) | Freeze thaw cycles Accuracy (%) ([2]; 100 ng/mL) | −80°C for 1month Accuracy (%) ([2]; 100 ng/mL, −80°C 1 month) | Autosampler for 24 h Accuracy (%) ([2]; 500 ng/mL) | Room temperature for 24 h Accuracy (%) ([2]; 500 ng/mL) | Freeze thaw cycles Accuracy (%) ([2]; 500 ng/mL) | −80°C for 1month Accuracy (%) ([2]; 500 ng/mL, −80°C 1 month) | other results |
| --- | --- | --- | --- | --- | --- | --- | --- | --- | --- | --- | --- | --- | --- | --- | --- | --- | --- | --- | --- | --- |
| C[C@@H]1O[C@@H](Oc2c(-c3ccc(O)c(O)c3)oc3cc(O)cc(O)c3c2=O)[C@H](O)[C@H](O)[C@H]1O [quercitrin] | 87.1% | 90.0% | 97.1% |  |  |  |  |  | 90.4% | 99.1% | 94.7% | 98.3% | 99.6% | 100.0% | 95.6% | 108.0% | 98.0% | 89.3% | 96.0% | Working solution Accuracy (%) ([1]; 1.56 ng/mL): 92.6%; Autosampler for 24 h Accuracy (%) ([2]; 1.56 ng/mL): 95.2%; Room temperature for 24 h Accuracy (%) ([2]; 1.56 ng/mL): 85.2%; Freeze thaw cycles Accuracy (%) ([2]; 1.56 ng/mL): 86.2%; −80°C for 1month Accuracy (%) ([2]; 1.56 ng/mL, −80°C 1 month): 86.7% |
| O=c1cc(-c2ccc(O)cc2)oc2c([C@@H]3O[C@H](CO)[C@@H](O)[C@H](O)[C@H]3O)c(O)cc(O)c12 [vitexin] | 105.0% | 92.0% | 106.0% | 88.3% |  |  |  |  | 89.9% | 106.0% | 93.5% | 93.2% | 88.3% | 85.5% | 93.2% | 92.4% | 107.0% | 108.0% | 92.6% | Working solution Accuracy (%) ([1]; 1.56 ng/mL): 95.6%; Autosampler for 24 h Accuracy (%) ([2]; 1.56 ng/mL): 95.0%; Room temperature for 24 h Accuracy (%) ([2]; 1.56 ng/mL): 92.0%; Freeze thaw cycles Accuracy (%) ([2]; 1.56 ng/mL): 103.0%; −80°C for 1month Accuracy (%) ([2]; 1.56 ng/mL, −80°C 1 month): 90.4% |
| O=C(O)[C@H]1O[C@@H](Oc2cc3oc(-c4ccc(O)cc4)cc(=O)c3c(O)c2O)[C@H](O)[C@@H](O)[C@@H]1O [scutellarin] |  |  |  |  | 97.2% |  | 92.2% | 91.2% | 108.0% | 100.0% |  | 109.0% | 101.0% | 111.0% | 101.0% | 101.0% | 105.0% | 112.0% | 103.0% | Working solution Accuracy (%) ([1]; 200 ng/mL): 99.4%; Autosampler for 24 h Accuracy (%) ([2]; 200 ng/mL): 94.7%; Room temperature for 24 h Accuracy (%) ([2]; 200 ng/mL): 90.6%; Freeze thaw cycles Accuracy (%) ([2]; 200 ng/mL): 85.4%; −80°C for 1month Accuracy (%) ([2]; 200 ng/mL, −80°C 1 month): 90.4% |
